Experimental data published in patent publication US20260374773A1, “MULTI-CYCLIC IRAK AND FLT3 INHIBITING COMPOUNDS AND USES THEREOF” (CHILDREN'S HOSPITAL MEDICAL CENTER, priority 2022, published 2026).

Tests used:
IRAK4 = target: T1, IRAK4 (Homo sapiens, UniProt Q9NWZ3); assay: NanoBRET target engagement assay in HEK-293 cells, IRAK4; format: cell-based; details: live HEK-293 cells, 1 h
T1 sequence (Q9NWZ3 1-460): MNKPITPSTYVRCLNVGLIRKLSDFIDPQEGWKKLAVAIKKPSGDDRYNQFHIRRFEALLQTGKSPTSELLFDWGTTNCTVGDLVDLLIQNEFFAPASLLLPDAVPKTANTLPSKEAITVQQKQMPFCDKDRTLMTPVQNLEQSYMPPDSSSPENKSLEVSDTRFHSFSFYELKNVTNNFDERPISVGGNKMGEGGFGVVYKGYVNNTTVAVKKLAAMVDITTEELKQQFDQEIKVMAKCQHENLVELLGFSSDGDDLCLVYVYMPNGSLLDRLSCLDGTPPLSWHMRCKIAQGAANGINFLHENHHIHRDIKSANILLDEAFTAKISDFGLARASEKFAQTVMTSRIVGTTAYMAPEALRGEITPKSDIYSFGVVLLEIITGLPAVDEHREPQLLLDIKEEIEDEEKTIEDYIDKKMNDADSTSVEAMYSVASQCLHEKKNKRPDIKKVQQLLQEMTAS
From the text: The NanoBRET assay measures kinase engagement in real time in the context of the intact cell. Unlike the previously described biochemical kinase assay methodology, the NanoBRET assay measures the binding and activity characteristics under equilibrium conditions using full-length kinases in the presence of cellular concentrations of ATP in live, uncompromised cells. As such, the assay provides a more relevant assessment of kinase potency and selectivity that would be expected to be observed in the native cellular environment, where potency is often considerably lower than that observed in the isolated biochemical assays (Vasta, J. D. et al., (2018) Cell Chem. Biol. 25, 206-214). The assay uses a Kinase-NanoLuc® fusion vector expressing a kinase protein to which a luciferase tag has been added, a cell-permeant fluorescent NanoBRET™ tracer, a NanoLuc® substrate, and an extracellular NanoLuc® inhibitor. Upon expression of the luciferase-tagged kinase, cells will produce a strong BRET signal only in the presence of the NanoBRET™ tracer. The extracellular NanoLuc® inhibitor ensures that the BRET signal observed emanates only from live cells. Because the BRET signal has tight distance constraints, addition of the test compound will decrease the BRET signal if the compound competes with the NanoBRET™ tracer for binding to the kinase domain. Under the appropriate tracer conditions established by the manufacturer, quantitative intracellular affinity and relative potency can then be determined using Mass Action model equations.
HEK-293 cells were purchased from ATCC. FuGENEHD Transfection Reagent, Kinase-NanoLucfusion plasmids, Transfection Carrier DNA, NanoBRETTracers and dilution buffer, NanoBRETNano-Glo Substrate, Extracellular NanoLucInhibitor were obtained from Promega.
Assays were conducted following Promega assay protocol with some modifications. HEK-293 Cells were transiently transfected with Kinase-NanoLucFusion Vector DNA by FuGENEHD Transfection Reagent. Testing compounds were delivered into 384 well assay plate by Echo 550 (LabcyteInc, Sunnyvale, CA). Transfected cells were harvested and mixed with NanoBRETTracer Reagent and dispensed into 384 well plates and incubated at 37 °C in 5% CO2 cell culture incubator for 1 hour. The NanoBRETNano-Glo Substrate plus Extracellular NanoLucInhibitor Solution were added into the wells of the assay plate and incubated for 2-3 minutes at room temperature. The donor emission wavelength (460 nm) and acceptor emission wavelength (600 nm) were measured in the En Visionplate reader. The BRET Ratios were calculated.
BRET Ratio=[(Acceptor sample÷Donor sample)−(Acceptor no-tracer control÷Donor no-tracer control)].
The IC50 values of compounds were calculated with Prism GraphPad program.
• 1). Cultivate HEK-293 cells (70-80% confluence) appropriately prior to assay. Trypsinize and collect HEK-293 cells. • 2). Prepare lipid:DNA complexes as follows: • a. Prepare a 10 μg/ml solution of DNA in Opti-MEM without serum that consists of the following ratios of carrier DNA and DNA encoding NanoLuc® fusion. 9.0 μg/mL of Transfection Carrier DNA, 1.0 μg/mL of NanoLuc fusion vector DNA and 1 mL of Opti-MEM without phenol red. Mix thoroughly. • b. Add 30 μl of FuGENE HD Transfection Reagent into each milliliter of DNA mixture to form lipid:DNA complex. • c. Mix by inversion 10 times. • d. Incubate at ambient temperature for 20 minutes to allow complexes to form. • 3). In a sterile, conical tube, mix 1 part of lipid:DNA complex with 20 parts of HEK-293 cells in suspension. Mix gently by inversion 5 times. • 4). Dispense cells+lipid:DNA complex into a sterile tissue culture dish and incubate for 22-24 hours.
Each test compound is delivered from the compound source plate to the wells of 384-well white NBS plate by Echo 550.
3. Preparation of Cells with NanoBRET™ Tracer Reagent • 1). Remove medium from dish with transfected HEK-293 cells via aspiration, trypsinize and allow cells to dissociate from the dish. • 2). […]

MOLM14 F691L cells = assay: MOLM14 F691L cell viability (Cell Titer Glo); format: cell-based; details: Homo sapiens
Protocol: Both cell lines have activated FLT3 receptors, each of which carry additional resistance mutations in the kinase domain (D835Y and F691L, respectively).
MOLM14 D835Y and MOLM14 F691L cells were grown in RPMI-1640 media supplemented with 20% fetal bovine serum (FBS). For viability/cytotoxicity assessments, cells were seeded into 1536-well white polystyrene tissue culture-treated Greiner plates using a Multidrop Combi dispenser (ThermoFisher), in final volume 5 μL of growth media per well, at a density of 1000 cells per well. After cell addition, 23 nL of test compound were transferred into individual wells (22 doses tested for each test compound, with a 1:2 dilution series starting at 10 μM) via a 1536 pin-tool. Bortezomib (final concentration 2.3 μM) was used as a positive control for cell cytotoxicity. Plates were incubated for 48 hours at standard incubator conditions covered by a stainless steel gasketed lid to prevent evaporation. 48 hours post compound addition, 3 μL of Cell Titer Glo (Promega) were added to each well and plates were incubated at room temperature for 15 minutes with the stainless-steel lid in place. Luminescence readings were taken using a Viewlux imager (PerkinElmer) with a 2 second exposure time per plate.

SMILES	IC50 (IRAK4; Table 14) [nM]	IC50 (MOLM14 F691L cells; MOLM-14, Table 16, 48 h) [nM]	IC50 (IRAK4; Table 20) [nM]	IC50 (MOLM14 F691L cells; MOLM-14, Table 22, 48 h) [nM]
COc1cn2ncc(-c3nc(N[C@@H]4CCCNC4)ncc3F)c2nc1C1CC1 [Compound 14a, (R)-4-(5-cyclopropyl-6-methoxypyrazolo[1,5-a]pyrimidin-3-yl)-5-fluoro-N-(piperidin-3-yl)pyrimidin-2-amine]	–	–	< 0.5	–
COc1cn2ncc(-c3nc(N[C@H]4CNCC[C@@H]4F)ncc3F)c2nc1C1CC1 [Compound 15a, 4-(5-cyclopropyl-6-methoxypyrazolo[1,5-a]pyrimidin-3-yl)-5-fluoro-N-((3S,4S)-4-fluoropiperidin-3-yl)pyrimidin-2-amine]	–	–	< 0.5	–
COc1cn2ncc(-c3cncc(N[C@@H]4CCCNC4)n3)c2nc1C1CC1 [Compound 11a, (R)-6-(5-cyclopropyl-6-methoxypyrazolo[1,5-a]pyrimidin-3-yl)-N-(piperidin-3-yl)pyrazin-2-amine]	–	–	< 0.5	–
COc1cn2ncc(-c3nc(N[C@@H]4CCCNC4)ccc3F)c2nc1C1CC1 [Compound 2, (R)-6-(5-cyclopropyl-6-methoxypyrazolo[1,5-a]pyrimidin-3-yl)-5-fluoro-N-(piperidin-3-yl)pyridin-2-amine]	–	14	–	–
COc1cn2ncc(-c3ccnc(N[C@H]4CNC[C@@H]4F)n3)c2nc1C1CC1 [Compound 8a, 4-(5-cyclopropyl-6-methoxypyrazolo[1,5-a]pyrimidin-3-yl)-N-((3S,4S)-4-fluoropyrrolidin-3-yl)pyrimidin-2-amine]	–	–	0.6	–
COc1cn2ncc(-c3cncc(N[C@H]4CNCC[C@@H]4F)n3)c2nc1C1CC1 [Compound 12a, 6-(5-cyclopropyl-6-methoxypyrazolo[1,5-a]pyrimidin-3-yl)-N-((3S,4S)-4-fluoropiperidin-3-yl)pyrazin-2-amine]	–	–	< 0.5	–
COc1cn2ncc(-c3cccc(N[C@H]4CNCC[C@@H]4F)n3)c2nc1C1CC1 [Compound 21, 6-(5-cyclopropyl-6-methoxypyrazolo[1,5-a]pyrimidin-3-yl)-N-((3S,4S)-4-fluoropiperidin-3-yl)pyridin-2-amine]	< 0.5	–	–	–
COc1cn2ncc(-c3ccnc(N[C@H]4CNCC[C@@H]4F)n3)c2nc1C(C)(C)O [Compound 3a, 2-(3-(2-(((3S,4S)-4-fluoropiperidin-3-yl)amino)pyrimidin-4-yl)-6-methoxypyrazolo[1,5-a]pyrimidin-5-yl)propan-2-ol]	–	–	8	565
COc1cn2ncc(-c3ccc(F)c(N[C@@H]4CCCNC4)n3)c2nc1C1CC1 [Compound 5, (R)-6-(5-cyclopropyl-6-methoxypyrazolo[1,5-a]pyrimidin-3-yl)-3-fluoro-N-(piperidin-3-yl)pyridin-2-amine]	3	127	–	–
COc1cn2ncc(-c3nc(N[C@H]4CNCC[C@@H]4F)ccc3F)c2nc1C1CC1 [Compound 3, 6-(5-cyclopropyl-6-methoxypyrazolo[1,5-a]pyrimidin-3-yl)-5-fluoro-N-((3S,4S)-4-fluoropiperidin-3-yl)pyridin-2-amine]	< 0.5	6	–	–
COc1cn2ncc(-c3nc(N[C@H]4CNC[C@@H]4F)ncc3F)c2nc1C1CC1 [Compound 13a, 4-(5-cyclopropyl-6-methoxypyrazolo[1,5-a]pyrimidin-3-yl)-5-fluoro-N-((3S,4S)-4-fluoropyrrolidin-3-yl)pyrimidin-2-amine]	–	–	< 0.5	–
COc1cn2ncc(-c3ccnc(N[C@H]4CNCC[C@@H]4F)n3)c2nc1C1CC1 [Compound 7a, 4-(5-cyclopropyl-6-methoxypyrazolo[1,5-a]pyrimidin-3-yl)-N-((3S,4S)-4-fluoropiperidin-3-yl)pyrimidin-2-amine]	–	–	0.8	–

Other lines, results leading:

IC50 (IRAK4; Table 14) [nM]	IC50 (MOLM14 F691L cells; MOLM-14, Table 16, 48 h) [nM]	IC50 (IRAK4; Table 20) [nM]	IC50 (MOLM14 F691L cells; MOLM-14, Table 22, 48 h) [nM]	SMILES
< 0.5	449	–	–	COc1cn2ncc(-c3nc(N[C@H]4CNC[C@@H]4F)c(F)cc3F)c2nc1C(C)(C)O [Compound 12, 2-(3-(3,5-difluoro-6-(((3S,4S)-4-fluoropyrrolidin-3-yl)amino)pyridin-2-yl)-6-methoxypyrazolo[1,5-a]pyrimidin-5-yl)propan-2-ol]
< 0.5	–	–	–	COc1cn2ncc(-c3nc(N[C@H]4CNCC[C@@H]4F)c(F)cc3F)c2nc1C1CC1 [Compound 22, 6-(5-cyclopropyl-6-methoxypyrazolo[1,5-a]pyrimidin-3-yl)-3,5-difluoro-N-((3S,4S)-4-fluoropiperidin-3-yl)pyridin-2-amine]
< 0.5	113	–	–	COc1cn2ncc(-c3nc(N[C@H]4CNCC[C@@H]4F)c(F)cc3F)c2nc1C(C)(C)O [Compound 13, 2-(3-(3,5-difluoro-6-(((3S,4S)-4-fluoropiperidin-3-yl)amino)pyridin-2-yl)-6-methoxypyrazolo[1,5-a]pyrimidin-5-yl)propan-2-ol]
< 0.5	142	–	–	COc1cn2ncc(-c3nc(N[C@@H]4CCCNC4)c(F)cc3F)c2nc1C(C)(C)O [Compound 11, (R)-2-(3-(3,5-difluoro-6-(piperidin-3-ylamino)pyridin-2-yl)-6-methoxypyrazolo[1,5-a]pyrimidin-5-yl)propan-2-ol]
–	–	3	101	COc1cn2ncc(-c3nc(N[C@@H]4CCCNC4)ncc3F)c2nc1C(C)(C)O [Compound 4a, (R)-2-(3-(5-fluoro-2-(piperidin-3-ylamino)pyrimidin-4-yl)-6-methoxypyrazolo[1,5-a]pyrimidin-5-yl)propan-2-ol]
–	–	< 0.5	45	COc1cn2ncc(-c3nc(N[C@H]4CNCC[C@@H]4F)ncc3F)c2nc1C(C)(C)O [Compound 6a, 2-(3-(5-fluoro-2-(((3S,4S)-4-fluoropiperidin-3-yl)amino)pyrimidin-4-yl)-6-methoxypyrazolo[1,5-a]pyrimidin-5-yl)propan-2-ol]
–	142	–	–	COc1cn2ncc(-c3nc(N[C@@H]4CCCNC4)c(C#N)cc3F)c2nc1C(C)(C)O [Compound 9, (R)-5-fluoro-6-(5-(2-hydroxypropan-2-yl)-6-methoxypyrazolo[1,5-a]pyrimidin-3-yl)-2-(piperidin-3-ylamino)nicotinonitrile]
